Measurements reported in patent US7741327B2 (Hoffmann-La Roche Inc., priority 2008, dated 2010).

Target: T1, Recombinant human liver GK1 (GST-GK) (Homo sapiens, UniProt P35557)
T1 construct: made in house; host or cells: E. coli
T1 sequence (P35557 1-466 isoform P35557-2): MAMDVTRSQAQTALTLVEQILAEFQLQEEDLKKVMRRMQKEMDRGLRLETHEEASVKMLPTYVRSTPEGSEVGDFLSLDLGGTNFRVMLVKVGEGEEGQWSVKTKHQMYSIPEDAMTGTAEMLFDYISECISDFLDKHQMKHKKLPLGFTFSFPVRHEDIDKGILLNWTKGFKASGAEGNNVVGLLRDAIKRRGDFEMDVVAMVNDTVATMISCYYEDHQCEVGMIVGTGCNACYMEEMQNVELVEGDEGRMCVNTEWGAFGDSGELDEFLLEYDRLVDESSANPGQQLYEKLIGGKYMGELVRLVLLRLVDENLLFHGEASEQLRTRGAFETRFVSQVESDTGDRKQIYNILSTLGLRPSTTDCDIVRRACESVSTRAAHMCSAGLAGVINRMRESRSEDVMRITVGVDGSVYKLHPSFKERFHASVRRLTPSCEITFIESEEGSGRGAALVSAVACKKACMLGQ
Test: In vitro glucokinase activity (G6PDH-coupled NADH assay)
Type: biochemical
Settings: 30° C., 5 mM D-glucose, 10% DMSO
Description: Glucokinase In Vitro Assay Protocol: Glucokinase (GK) was assayed by coupling the production of glucose-6-phosphate to the generation of NADH with glucose-6-phosphate dehydrogenase (G6PDH, 0.75-1 kunits/mg; Boehringer Mannheim, Indianapolis, Ind.) from Leuconostoc mesenteroides as the coupling enzyme (Scheme 2).
Recombinant human liver GK1 was expressed in E. coli as a glutathione S-transferase fusion protein (GST-GK) [Liang et al, 1995] and was purified by chromatography over a glutathione-Sepharose 4B affinity column using the procedure provided by the manufacturer (Amersham Pharmacia Biotech, Piscataway, N.J.).
The assay was conducted at 30° C. in a flat bottom 96-well tissue culture plate from Costar (Cambridge, Mass.) with a final incubation volume of 120 μL. The incubation reaction contained the following: 25 mM Hepes buffer (pH 7.1), 25 mM KCl, 5 mM D-glucose, 1 mM ATP, 1.8 mM NAD, 2 mM MgCl2, 1 μM sorbitol-6-phosphate, 1 mM dithiothreitol, test drug or 10% dimethylsulfoxide, ˜7 units/ml G6PDH, and GK (see below). All organic reagents were >98% pure and were from Boehringer Mannheim with the exceptions of D-glucose and Hepes which were from Sigma Chemical Co, St Louis, Mo. Test compounds were dissolved in dimethylsulfoxide and were added to the incubation reaction minus GST-GK in a volume of 12 μL to yield a final dimethylsulfoxide concentration of 10%. This mix was pre-incubated in the temperature controlled chamber of a SPECTRAmax 250 microplate spectrophotometer (Molecular Devices Corporation, Sunnyvale, Calif.) for 10 min to allow temperature equilibrium and then the reaction was started by the addition of 20 μL GST-GK.
After addition of enzyme, the increase in optical density (OD) at 340 nm was monitored spectrophotometrically to determine the rate of change (OD340 per min). The GK activity (OD340/min) in control wells (10% DMSO minus GK activators) was compared with the activity in wells containing test GK activators, and the concentration of activator that produced a 50% increase in the activity of GK, i.e., the SC1.5, was calculated. The table below provides the in vitro glucokinase activity for the compounds in the Examples: […]

Row | SC1.5 (concentration of activator that produced a 50% increase in the activity of GK) [µM] | Structure (SMILES)
1 | 0.117 | Cc1cccc(OC2=CC(=O)N([C@@H](CC(C)C)C(=O)Nc3ccn(C[C@@H](O)CO)n3)C2)c1F [Example 131, (S)-2-[4-(2-Fluoro-3-methyl-phenoxy)-2-oxo-2,5-dihydro-pyrrol-1-yl]-4-methyl-pentanoic acid [1-((R)-2,3-dihydroxy-propyl)-1H-pyrazol-3-yl]-amide]
2 | 0.243 | COc1cccc(OC2=CC(=O)N([C@@H](CC(C)C)C(=O)Nc3ccn(CC(C)(C)O)n3)C2)c1 [Example 165, (S)-2-[4-(3-Methoxy-phenoxy)-2-oxo-2,5-dihydro-pyrrol-1-yl]-4-methyl-pentanoic acid [1-(2-hydroxy-2-methyl-propyl)-1H-pyrazol-3-yl]-amide]
3 | 0.028 | CC(C)(O)Cn1ccc(NC(=O)[C@H](CC2CCCCC2)N2CC(Oc3c(F)cccc3F)=CC2=O)n1 [Example 36, (S)-3-Cyclohexyl-2-[4-(2,6-difluoro-phenoxy)-2-oxo-2,5-dihydro-pyrrol-1-yl]-N-[1-(2-hydroxy-2-methyl-propyl)-1H-pyrazol-3-yl]-propionamide]
4 | 1.998 | CCOc1ccccc1OC1=CC(=O)N([C@@H](CC(C)C)C(=O)Nc2ccn(CCO)n2)C1.Cl [Example 85, (S)-2-[4-(2-Ethoxy-phenoxy)-2-oxo-2,5-dihydro-pyrrol-1-yl]-4-methyl-pentanoic acid [1-(2-hydroxy-ethyl)-1H-pyrazol-3-yl]-amide Hydrochloride]
5 | 3.668 | CC(C)C[C@@H](C(=O)Nc1cnccn1)N1CC(Oc2ccc(CC(C)(C)O)cc2)=CC1=O [Example 245, (S)-2-{4-[4-(2-Hydroxy-2-methyl-propyl)-phenoxy]-2-oxo-2,5-dihydro-pyrrol-1-yl}-4-methyl-pentanoic acid pyrazin-2-ylamide]
6 | 0.066 | CC(C)C[C@@H](C(=O)Nc1ccn(CC(C)(C)O)n1)N1CC(Oc2c(F)ccc(OC(C)C)c2F)=CC1=O [Example 135, (S)-2-[4-(2,6-Difluoro-3-isopropoxy-phenoxy)-2-oxo-2,5-dihydro-pyrrol-1-yl]-4-methyl-pentanoic acid [1-(2-hydroxy-2-methyl-propyl)-1H-pyrazol-3-yl]-amide]
7 | 1.388 | CC(C)OCCn1ccc(NC(=O)[C@H](CC2CCCC2)N2CC(OC3CCCC3)=CC2=O)n1 [Example 20, (S)-3-Cyclopentyl-N-[1-(2-isopropoxy-ethyl)-1H-pyrazol-3-yl]-2-(4-cyclopentyloxy-2-oxo-2,5-dihydro-pyrrol-1-yl)-propionamide]
8 | 0.412 | CC(C)C[C@@H](C(=O)Nc1ccn(C[C@@H]2C[C@H](CC(=O)OC(C)(C)C)OC(C)(C)O2)n1)N1CC(Oc2ccccc2Cl)=CC1=O [Example 192]
9 | 3.591 | COC1=CC(=O)N([C@@H](CC2CCCC2)C(=O)Nc2ccn(Cc3cccc(C#N)c3)n2)C1 [Example 12, (S)-N-[1-(3-Cyano-benzyl)-1H-pyrazol-3-yl]-3-cyclopentyl-2-(4-methoxy-2-oxo-2,5-dihydro-pyrrol-1-yl)-propionamide]
10 | 3.485 | COc1cccc(OC2=CC(=O)N(C(CC(C)(C)F)C(=O)Nc3ccn(CC(C)(C)O)n3)C2)c1Cl (centres unmarked) [Example 171, 2-[4-(2-Chloro-3-methoxy-phenoxy)-2-oxo-2,5-dihydro-pyrrol-1-yl]-4-fluoro-4-methyl-pentanoic acid [1-(2-hydroxy-2-methyl-propyl)-1H-pyrazol-3-yl]-amide]
11 | 0.944 | CC(CC(C(=O)Nc1ccn(CC(C)(C)O)n1)N1CC(Oc2ccccc2Cl)=CC1=O)C(F)(F)F (centres unmarked) [Example 226, 2-[4-(2-Chloro-phenoxy)-2-oxo-2,5-dihydro-pyrrol-1-yl]-5,5,5-trifluoro-4-methyl-pentanoic acid [1-(2-hydroxy-2-methyl-propyl)-1H-pyrazol-3-yl]-amide]
